# Measured values from paper PMC12442245, “Activity Analysis of the P2X Receptor Antagonist PPADS against Signal Transducer and Activator of Transcription Proteins” (Chembiochem, 2025).
# Key:
# STAT5a = target: T1, STAT5a (Homo sapiens, UniProt P42229); test: Competitive fluorescence polarization (FP) assay, STAT5a; format: binding; conditions: no reducing agent, 1 h
# T1 sequence (P42229 1-794): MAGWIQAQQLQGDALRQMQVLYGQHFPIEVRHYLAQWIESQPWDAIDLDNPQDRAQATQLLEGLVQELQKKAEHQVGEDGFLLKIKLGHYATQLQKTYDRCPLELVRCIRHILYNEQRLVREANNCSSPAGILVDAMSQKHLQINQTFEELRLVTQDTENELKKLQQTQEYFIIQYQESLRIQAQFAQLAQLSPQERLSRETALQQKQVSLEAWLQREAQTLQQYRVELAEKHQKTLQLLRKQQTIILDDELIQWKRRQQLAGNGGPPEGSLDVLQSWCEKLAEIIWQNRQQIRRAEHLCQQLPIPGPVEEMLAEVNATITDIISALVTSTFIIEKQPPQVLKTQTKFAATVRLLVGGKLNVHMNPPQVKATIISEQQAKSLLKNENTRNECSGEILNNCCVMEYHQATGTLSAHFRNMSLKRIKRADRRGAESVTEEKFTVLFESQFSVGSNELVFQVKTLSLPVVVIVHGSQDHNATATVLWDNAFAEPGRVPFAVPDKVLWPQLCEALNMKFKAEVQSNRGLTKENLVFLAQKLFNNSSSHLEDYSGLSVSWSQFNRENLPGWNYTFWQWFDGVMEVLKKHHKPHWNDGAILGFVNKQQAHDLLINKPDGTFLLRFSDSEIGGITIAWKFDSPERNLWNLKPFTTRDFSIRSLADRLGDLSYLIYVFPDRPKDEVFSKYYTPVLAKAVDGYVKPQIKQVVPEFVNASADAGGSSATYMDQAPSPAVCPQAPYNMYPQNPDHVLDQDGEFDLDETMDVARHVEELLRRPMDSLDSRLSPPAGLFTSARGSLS
# From the text: (§1) Screening of chemical libraries
# (§2) Screening of chemical libraries comprising approximately 5000 known bioactive compounds in fluorescence polarization-based assays against phosphorylation-dependent protein-protein interaction domains, including STAT proteins, has been described.[1] PPADS was purchased from Sigma-Aldrich, and iso-PPADS from Bio-Techne.
# (§3) Fluorescence polarization assays
# (§4) Competitive fluorescence polarization (FP) assays for STAT1,[2] STAT3,[3] STAT4,[4] STAT5a,[5] STAT5b[6] and STAT6[1] were performed as previously described. Briefly, peptide binding to proteins was analyzed using the following carboxyfluorescein (CF) -labelled pepti des at a concentration of 10 nM: STAT1: 5-CF-GpYDKPHVL-OH, STAT3: 5-CF-GpYLPQTV -NH2, STAT4: 5-CF-GpYLPQNID-OH, STAT5a and STAT5b: 5-CF-GpYLVLDKW-OH, STAT6: 5- […]
# CFGp[…]-OH. […] FP was measured using an Infinite F500 plate reader (Tecan) and measurements were converted into percent inhibition according to the binding curve equation. Curves were plotted and best fits calculated using OriginPro […]
# Homogenous time-resolved fluorescence (HTRF) assays for STAT3, STAT4, STAT5a and STAT5b were carried out using Cisbio Monoclonal Antibody Anti-6His-Tb Gold as the fluorescence donor (Perkin Elmer) and the corresponding CF-labelled binding peptide as the acceptor. […] The average reading from 3 wells was obtained. […]
# STAT5b = target: T2, STAT5b (Homo sapiens, UniProt P51692); test: Competitive fluorescence polarization (FP) assay, STAT5b; format: binding; conditions: no reducing agent, 1 h
# T2 sequence (P51692 1-787): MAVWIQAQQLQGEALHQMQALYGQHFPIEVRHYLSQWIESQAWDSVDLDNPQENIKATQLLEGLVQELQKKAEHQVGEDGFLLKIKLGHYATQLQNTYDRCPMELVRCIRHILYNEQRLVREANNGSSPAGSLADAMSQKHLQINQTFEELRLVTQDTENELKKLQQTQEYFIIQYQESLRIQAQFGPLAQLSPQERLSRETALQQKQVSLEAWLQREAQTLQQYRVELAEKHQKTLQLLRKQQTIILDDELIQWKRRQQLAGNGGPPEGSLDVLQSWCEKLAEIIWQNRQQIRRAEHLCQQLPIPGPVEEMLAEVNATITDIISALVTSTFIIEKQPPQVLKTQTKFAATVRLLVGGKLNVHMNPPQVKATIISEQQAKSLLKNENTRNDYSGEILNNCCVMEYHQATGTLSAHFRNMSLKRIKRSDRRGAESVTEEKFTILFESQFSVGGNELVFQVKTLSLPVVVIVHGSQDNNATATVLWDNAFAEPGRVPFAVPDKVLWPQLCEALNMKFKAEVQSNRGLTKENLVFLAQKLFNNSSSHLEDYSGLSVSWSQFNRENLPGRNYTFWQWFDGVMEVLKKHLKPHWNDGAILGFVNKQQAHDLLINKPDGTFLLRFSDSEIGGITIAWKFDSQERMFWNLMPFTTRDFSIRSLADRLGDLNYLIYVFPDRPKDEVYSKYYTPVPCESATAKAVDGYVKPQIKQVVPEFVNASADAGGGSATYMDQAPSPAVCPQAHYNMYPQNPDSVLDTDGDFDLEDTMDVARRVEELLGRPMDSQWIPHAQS
# From the text: as §1, §2, §3, §4
# CFGp[…]-OH. Proteins were used at a final concentration representing the approximate Kd value for binding of the corresponding peptide to the protein, namely 65 nM for STAT1, 65 nM for STAT3, 35 nM for STAT4, 125 nM for STAT5a, 65 nM for STAT5b and 75 nM for STAT6. […] FP was measured using an Infinite F500 plate reader (Tecan) and measurements were converted into percent inhibition according to the binding curve equation. Curves were plotted and best fits calculated using OriginPro […]
Compound,IC50 (STAT5a) [µM],IC50 (STAT5b) [µM]
"Cc1nc(/N=N/c2ccc(S(=O)(=O)O)cc2S(=O)(=O)O)c(COP(=O)(O)O)c(C=O)c1O [PPADS, pyridoxalphosphate‐6‐azophenyl‐2',4'‐disulfonic acid]",1.5 ± 0.2,2 ± 0.3
Cc1nc(/N=N/c2cc(S(=O)(=O)O)ccc2S(=O)(=O)O)c(COP(=O)(O)O)c(C=O)c1O [iso‐PPADS],4.8 ± 0.4,1.9 ± 0.1
